Test results reported in US10981926B2 (Janssen Pharmaceutica NV, priority 2016, dated 2021).

Tests used:
Type in all cases: cell-based
[1] = molecular target: T1, wild-type Androgen Receptor (AR-wt) (Homo sapiens (Human), UniProt P10275); assay: LNCaP-AR-wt ANT reporter assay (antagonist mode); conditions: for Emax: read-out: LNCaP-AR-wt ANT MAX % Inh; for IC50: read-out: LNCaP-AR-wt ANT pIC50 (converted)
[2] = molecular target: T2, F876L mutant Androgen Receptor (AR-F876L) (Homo sapiens (Human), UniProt P10275, F877L); assay: LNCaP-AR-F876L ANT reporter assay (antagonist mode); conditions: for Emax: read-out: LNCaP-AR-F876L ANT MAX % Inh; for IC50: read-out: LNCaP-AR-F876L ANT pIC50 (converted)
T2 sequence (P10275 whole entry F877L): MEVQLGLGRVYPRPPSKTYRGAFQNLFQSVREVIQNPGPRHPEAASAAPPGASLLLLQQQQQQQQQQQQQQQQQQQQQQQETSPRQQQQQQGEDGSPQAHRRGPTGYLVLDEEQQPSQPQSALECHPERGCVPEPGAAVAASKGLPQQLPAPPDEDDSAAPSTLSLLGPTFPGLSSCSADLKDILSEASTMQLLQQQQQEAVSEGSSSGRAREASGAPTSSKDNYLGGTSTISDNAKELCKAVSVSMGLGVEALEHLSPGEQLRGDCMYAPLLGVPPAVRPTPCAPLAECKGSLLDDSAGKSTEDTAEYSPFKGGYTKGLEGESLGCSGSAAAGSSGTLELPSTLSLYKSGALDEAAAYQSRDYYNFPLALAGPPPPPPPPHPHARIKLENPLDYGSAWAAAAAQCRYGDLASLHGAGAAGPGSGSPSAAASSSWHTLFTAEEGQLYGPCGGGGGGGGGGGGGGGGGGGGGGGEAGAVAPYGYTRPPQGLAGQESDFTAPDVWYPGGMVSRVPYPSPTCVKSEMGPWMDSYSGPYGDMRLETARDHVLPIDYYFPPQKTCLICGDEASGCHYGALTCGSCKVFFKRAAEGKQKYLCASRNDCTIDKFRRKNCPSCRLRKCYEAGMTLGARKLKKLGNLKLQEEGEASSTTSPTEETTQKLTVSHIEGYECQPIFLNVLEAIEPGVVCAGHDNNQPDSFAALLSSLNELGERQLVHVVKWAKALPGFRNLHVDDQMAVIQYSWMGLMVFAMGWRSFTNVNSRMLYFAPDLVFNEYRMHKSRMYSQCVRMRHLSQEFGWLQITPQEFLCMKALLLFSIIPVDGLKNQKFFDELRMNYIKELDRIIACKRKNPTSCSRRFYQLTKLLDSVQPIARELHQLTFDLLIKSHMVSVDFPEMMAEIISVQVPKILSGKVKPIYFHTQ

[3] = molecular target: T1, wild-type Androgen Receptor (AR-wt); assay: LNCaP-AR-wt AG reporter assay (agonist mode); conditions: for Emax: read-out: LNCaP-AR-wt AG MAX % Stim; for EC50: read-out: LNCaP-AR-wt AG pEC50 (converted)
[4] = molecular target: T2, F876L mutant Androgen Receptor (AR-F876L); assay: LNCaP-AR-F876L AG reporter assay (agonist mode); conditions: for Emax: read-out: LNCaP-AR-F876L AG MAX % Stim; for EC50: read-out: LNCaP-AR-F876L AG pEC50 (converted)
[5] = antagonist mode, maximum % inhibition of R1881 control response over tested concentration range
[6] = antagonist mode, pIC50 = −Log10(IC50 in Molar)
[7] = agonist mode, maximum % stimulation over tested concentration range
[8] = agonist mode, pEC50 = −Log10(EC50 in Molar)
[9] = maximum % inhibition of R1881 control response over the tested concentration range
[10] = maximum % stimulation (agonist response) over the tested concentration range

T1 sequence (P10275 whole entry): as the sequence (P10275 whole entry F877L) above, with L877F counted along it

Emax [1, 5]	IC50 [1, 6]	Emax [2, 5]	IC50 [2, 6]	Emax [3, 7]	EC50 [3, 8]	Emax [4, 7]	EC50 [4, 8]	Emax [1, 9]	Emax [2, 9]	Emax [3, 10]	Emax [4, 10]	Molecule	LNCaP-AR-wt ANT pIC50 [1, 6]	LNCaP-AR-wt ANT MAX % Inh [1, 9]	LNCaP-AR-F876L ANT pIC50 [2, 6]	LNCaP-AR-F876L ANT MAX % Inh [2, 9]	LNCaP-AR-wt AG pEC50 [3, 8]	LNCaP-AR-wt AG MAX % Stim [3, 10]	LNCaP-AR-F876L AG pEC50 [4, 8]	LNCaP-AR-F876L AG MAX % Stim [4, 10]
0%	1740 nM	100%	832 nM	0.4%	> 15100 nM	0.1%	> 15100 nM					N#Cc1ncc(N2C(=O)C3(CCC3)N(c3ccc4[nH]c(CCO)nc4c3)C2=S)cc1C(F)(F)F								
												3-chloro-5-[8-[1-(2-methoxyethyl)indazol-5-yl]-5-oxo-7-thioxo-6,8-diazaspiro[3.4]octan-6-yl]pyridine-2-carbonitrile [Cpd 171]	6.45	101.3%	6.80	100.8%	<4.82	0.2%	<4.82	0.1%
	132 nM		126 nM		> 15100 nM		> 15100 nM	105%	102%	-0.1%	0.3%	N#Cc1ncc(N2C(=O)C3(CCC3)N(c3ccc(OC4CCNCC4(F)F)cc3)C2=S)cc1C(F)(F)F (racemic) [Cpd 136, (R,S)-5-[8-[4-[(3,3-difluoro-4-piperidyl)oxy]phenyl]-5-oxo-7-thioxo-6,8-diazaspiro[3.4]octan-6-yl]-3-(trifluoromethyl)pyridine-2-carbonitrile]								
	49 nM		83.2 nM		> 15100 nM		> 15100 nM	102%	98.7%	0.3%	0.9%	CN1CCC(Oc2ccc(N3C(=S)N(c4cnc(C#N)c(C(F)(F)F)c4)C(=O)C34CCC4)cc2)C(F)(F)C1 (racemic) [Cpd 137, (R,S)-5-[8-[4-[(3,3-difluoro-1-methyl-4-piperidyl)oxy]phenyl]-5-oxo-7-thioxo-6,8-diazaspiro[3.4]octan-6-yl]-3-(trifluoromethyl)pyridine-2-carbonitrile]								
	234 nM		145 nM		> 15100 nM		> 15100 nM	106%	104%	0%	-0.1%	N#Cc1ncc(N2C(=O)C3(CCC3)N(c3ccc(OC4CCNC5(CCC5)C4)cc3)C2=S)cc1C(F)(F)F (racemic) [Cpd 151, (R,S)-5-[8-[4-(9-azaspiro[3.5]nonan-6-yloxy)phenyl]-5-oxo-7-thioxo-6,8-diazaspiro[3.4]octan-6-yl]-3-(trifluoromethyl)pyridine-2-carbonitrile]								
	316 nM		427 nM		> 15100 nM		> 15100 nM	100%	95.6%	0.3%	2.3%	CN1CC[C@@H](Oc2ccc(N3C(=S)N(c4cnc(C#N)c(C(F)(F)F)c4)C(=O)C34CCC4)cc2)C[C@H]1C(F)(F)F (racemic) [Cpd 158, 5-[8-[4-[[(2SR, 4RS)-1-methyl-2-(trifluoromethyl)-4-piperidyl]oxy]phenyl]-5-oxo-7-thioxo-6,8-diazaspiro[3.4]octan-6-yl]-3-(trifluoromethyl)pyridine-2-carbonitrile]								
	174 nM		234 nM		> 15100 nM		> 15100 nM	104%	102%	0.3%	0%	CN1CCC(Oc2ccc(N3C(=S)N(c4cnc(C#N)c(C(F)(F)F)c4)C(=O)C34CCC4)cc2)CC12CCC2 (racemic) [Cpd 178, (R,S)-5-[8-[4-[(9-methyl-9-azaspiro[3.5]nonan-6-yl)oxy]phenyl]-5-oxo-7-thioxo-6,8-diazaspiro[3.4]octan-6-yl]-3-(trifluoromethyl)pyridine-2-carbonitrile]								
104%	219 nM	104%	170 nM	-0.2%	> 15100 nM	0.3%	> 15100 nM					N#Cc1ncc(N2C(=O)C3(CCC3)N(c3ccc(OC4CCNC5(CCC5)C4)nc3)C2=S)cc1C(F)(F)F (racemic) [Cpd 188, (R,S)-5-[8-[6-(9-azaspiro[3.5]nonan-6-yloxy)-3-pyridyl]-5-oxo-7-thioxo-6,8-diazaspiro[3.4]octan-6-yl]-3-(trifluoromethyl)pyridine-2-carbonitrile]								
103%	155 nM	103%	186 nM	-0.3%	> 15100 nM	0.4%	> 15100 nM					CN1CCC(Oc2ccc(N3C(=S)N(c4cnc(C#N)c(C(F)(F)F)c4)C(=O)C34CCC4)cn2)CC12CCC2 (racemic) [Cpd 194, (R,S)-5-[8-[6-[(9-methyl-9-azaspiro[3.5]nonan-6-yl)oxy]-3-pyridyl]-5-oxo-7-thioxo-6,8-diazaspiro[3.4]octan-6-yl]-3-(trifluoromethyl)pyridine-2-carbonitrile]								
101%	372 nM	100%	229 nM	0.5%	> 15100 nM	0.4%	> 15100 nM					N#Cc1ncc(N2C(=O)C3(CCC3)N(c3ccc(O[C@@H]4CCN[C@H](CO)C4)cc3)C2=S)cc1C(F)(F)F (racemic) [Cpd 223, 5-[8-(2SR,4RS)[4-[[2-(hydroxymethyl)-4-piperidyl]oxy]phenyl]-5-oxo-7-thioxo-6,8-diazaspiro[3.4]octan-6-yl]-3-(trifluoromethyl)pyridine-2-carbonitrile]								
101%	60.3 nM	100%	36.3 nM	0.4%	> 15100 nM	0.2%	> 15100 nM					CN1CC[C@@H](Oc2ccc(N3C(=S)N(c4cnc(C#N)c(C(F)(F)F)c4)C(=O)C34CCC4)cc2)C[C@H]1CO (racemic) [Cpd 226, 5-[8-(2SR,4RS)[4-[[2-(hydroxymethyl)-1-methyl-4-piperidyl]oxy]phenyl]-5-oxo-7-thioxo-6,8-diazaspiro[3.4]octan-6-yl]-3-(trifluoromethyl)pyridine-2-carbonitrile]								
	407 nM		324 nM		> 15100 nM		> 15100 nM	97.8%	98.9%	2.2%	1.8%	Cc1cc(N2C(=O)C3(CCC3)N(c3ccc(-c4cn[nH]c4)cc3)C2=S)cnc1C#N [Cpd 3, 3-methyl-5-[5-oxo-8-[4-(1H-pyrazol-4-yl)phenyl]-7-thioxo-6,8-diazaspiro[3.4]octan-6-yl]pyridine-2-carbonitrile]								
	676 nM		661 nM		> 15100 nM		> 15100 nM	98.8%	90.3%	1.2%	3.3%	COc1cc(N2C(=S)N(c3cnc(C#N)c(C)c3)C(=O)C23CCC3)ccc1-c1ccc(C)o1 [Cpd 5, 5-{8-[3-methoxy-4-(5-methyl(2-furyl))phenyl]-5-oxo-7-thioxo-6,8-diazaspiro[3.4]oct-6-yl}-3-methylpyridine-2-carbonitrile]								
	295 nM		191 nM		> 15100 nM		> 15100 nM	99.7%	98.1%	0.3%	0.9%	COCc1ccc(-c2ccc(N3C(=S)N(c4cnc(C#N)c(C)c4)C(=O)C34CCC4)cc2)o1 [Cpd 6, 5-(8-{4-[5-(methoxymethyl)(2-furyl)]phenyl}-5-oxo-7-thioxo-6,8-diazaspiro[3.4]oct-6-yl)-3-methylpyridine-2-carbonitrile]								
	288 nM		135 nM		> 15100 nM		> 15100 nM	99.1%	98.2%	0.3%	2.8%	Cc1cc(N2C(=O)C3(CCC3)N(c3ccc(-c4cnn(C(N)=O)c4)cc3)C2=S)cnc1C#N [Cpd 7, 4-{4-[7-(6-cyano-5-methyl(3-pyridyl))-8-oxo-6-thioxo-5,7-diazaspiro[3.4]oct-5-yl]phenyl}pyrazolecarboxamide]								
	1170 nM		1150 nM		> 15100 nM		> 15100 nM	86.6%	96%	0.4%	-0.1%	CNC(=O)Cc1ccc(N2C(=S)N(c3cnc(C#N)c(C)c3)C(=O)C23CCC3)cc1 [Cpd 8, 2-{4-[7-(6-cyano-5-methyl(3-pyridyl))-8-oxo-6-thioxo-5,7-diazaspiro[3.4]oct-5-yl]phenyl}-N-methylacetamide]								
		101%	129 nM	0%	> 15100 nM	0%	> 15100 nM					COc1cc(N2C(=O)C3(CCC3)N(c3ccc(CN4CCNCC4)cc3)C2=S)cnc1C#N [Cpd 229, 3-methoxy-5-[5-oxo-8-[4-(piperazin-1-ylmethyl)phenyl]-7-thioxo-6,8-diazaspiro[3.4]octan-6-yl]pyridine-2-carbonitrile]								
